Converted amounts (≈) assume the structure as drawn.
How the values were obtained:
[1] = test system: serum creatinine and blood urea nitrogen; test: Folic acid-induced acute kidney injury, serum creatinine and urea; format: in vivo, C57BL/6 mice; set-up: unit not given here; details: folic acid acute model
Procedure: Except for the normal group, all other mice were administered folic acid (250 mg/kg) dissolved in 0.9% NaHCO3 solution via intraperitoneal injection to establish an acute kidney injury model.
The blood was allowed to stand at room temperature for 2 hours, then centrifuged at 3000 rpm for 20 minutes. Serum was aspirated, aliquoted, and stored at −70° C. for future use. Following blood collection, euthanize mice by cervical dislocation. Perform laparotomy to remove kidneys, dissect out perirenal fat and capsules. […] Paraffin-embedded specimens undergo HE staining; remaining tissue is stored at −70° C. for future use.
Serum Creatinine (Scr) and Blood Urea Nitrogen (BUN) Level Assay: 10 μL of serum from each sample was used for creatinine and urea level detection. Samples were added sequentially strictly following the kit instructions. After incubation at 37° C., absorbance values were measured using an enzyme-linked immunosorbent assay (ELISA) reader. The concentration levels of each indicator were calculated based on the standard curve.

Hepa1-6 cells = test: Antitumor efficacy combined with anti-PD-L1 monoclonal antibody, Hepa1-6 xenograft; format: in vivo, C57BL/6 mice; details: for combination with anti-PD-L1 monoclonal antibody vs. single agents, Hepa1-6: 1 mg/kg/day i.p., 2 weeks, result in words
Procedure: Hepa1-6 cells were cultured and expanded in vitro. An appropriate number of cells in the logarithmic growth phase was resuspended in a mixture of serum-free DMEM medium and Matrigel (1:1). Under sterile conditions, prepare a cell suspension at 2.5×10^6 cells/100 μL. Using a syringe, inject 100 μL of the cell suspension subcutaneously into the left forelimb axilla of male C57BL/6 mice. […] Compounds 20 and 103 were administered via intraperitoneal injection daily, while anti-PD-L1 monoclonal antibody was administered intraperitoneally every three days for a total of two weeks. During the treatment period, mouse body weight and tumor diameter were measured daily. At the end of the experiment, mice were euthanized by cervical dislocation, and tumors were removed and weighed. Tumor volume (TV) was calculated using the formula: TV=½×a×b^2, where a represents the longest diameter of the tumor and b represents the shortest diameter.

H22 cells = test: Antitumor efficacy combined with anti-PD-L1 monoclonal antibody, H22 xenograft; format: in vivo, Balb/c mice; details: 2 weeks; for combination with anti-PD-L1 monoclonal antibody vs. single agents, H22: 2.5 mg/kg/day i.p., result in words; for Tumor inhibition rate (%) / Tumor weight: dose 2.5 (head μmol/kg/day; text 2.5 mg/kg/day), i.p. daily, H22
Procedure: H22 cells were cultured and expanded in vitro. An appropriate number of cells in the logarithmic growth phase was resuspended in a mixture of serum-free RPMI 1640 medium and Matrigel (1:1). Under aseptic conditions, prepare a2×10^6/100 μL cell suspension. Using a syringe, inject 100 μL of the cell suspension subcutaneously into the left forelimb axilla of male Balb/c mice. […] Compounds 20 and 103 were administered daily via intraperitoneal injection, while anti-PD-L1 monoclonal antibody was administered every three days via intraperitoneal injection for a 2-week treatment period. During the treatment period, mouse body weight and tumor diameter were measured daily. At the end of the experiment, mice were euthanized by cervical dislocation, and tumors were removed and weighed. Tumor volume (TV) was calculated using the formula: TV=½×a×b^2, where a represents the longest diameter of the tumor and b represents the shortest diameter.

[2] = Water solubility testing of compounds (HPLC); details: deionized water, water, Water-solubility, 37 °C
serum ALT and AST = test: CCl4-induced acute liver injury, serum ALT and AST; format: in vivo, C57BL/6 mice
Procedure: (§1) They were acclimated for 7 days before use in experiments.
(§2) Mice were randomly assigned to groups. One group was arbitrarily designated as the normal group, while the remaining groups served as model group, Compound 1 group, Hydrochloride 20 group, Fumarate 21 group, and Silibinin group, with 6 mice per group. Except for the normal group receiving 10 mL olive oil/kg via injection, all other mice received 0.5 mL CCl4+9.5 mL olive oil/kg body weight via intraperitoneal injection, maintaining a CCl4 to olive oil ratio of 1:19. Starting from day 1 of modeling, Compound 1, Hydrochloride 20, and Fumarate 21 were administered orally for 3 consecutive days.
(§3) The blood was allowed to stand at room temperature for 2 hours, then centrifuged at 3000 rpm for 20 minutes. Serum was aspirated, aliquoted, and stored at −70° C. for future use. After blood collection, euthanize mice by cervical dislocation. Perform laparotomy to remove the liver. Rinse twice with pre-chilled PBS. Excise the left hepatic lobe tissue. […] Store remaining tissue at −70° C. for future use.
Serum AST and ALT Assay: Use 10 μL of each sample for testing. Determine mouse serum AST and ALT levels according to the operating manual. Measure absorbance at 510 nm using an enzyme-linked immunosorbent assay (ELISA) reader. Calculate sample concentration (U/L) based on the standard curve.
(§4) Data Statistics: All data are expressed as means f standard error of the mean (S.E.M.). Differences were analyzed for significance using analysis of variance (ANOVA). For groups showing significant differences in ANOVA, one-way ANOVA followed by Dunnett's test was performed to compare intergroup differences.

[3] = test system: fibrosis-related factors (Acta2, Col1a1, Tgfb1) in liver tissue; test: CCl4-induced acute liver injury, liver fibrosis-related factor mRNA; format: in vivo, C57BL/6 mice; set-up: unit not given here
Procedure: as §1, §2, §3
Q-PCR Analysis: Tissue total RNA extraction, cDNA synthesis, and PCR amplification methods are identical to Example 4. Additional primer information is as follows:
as §4

[4] = test system: inflammatory factors (TNF, IL-6, IL-1) in renal tissue; test: LPS-induced sepsis, renal inflammatory factor mRNA (Q-PCR); details: for Tnf mRNA expression, kidney: LPS 7.30; for Il1 mRNA expression, kidney: LPS 7.99; for Il6 mRNA expression, kidney: LPS 8.80
Excerpt: (§5) They were acclimated for 7 days before experimentation.
(§6) The normal and model groups received equal volumes of solvent (0.5% CMC-Na) via oral gavage.
(§7) Specimen Collection: One hour after the final drug administration, mice were euthanized by cervical dislocation. The abdominal cavity was opened, and the lungs, liver, and kidneys were removed. These organs were rinsed twice with pre-chilled PBS. Tissue samples were excised from the mouse lungs, left hepatic lobe, and kidneys. […] Remaining tissues were stored at −70° C. for future use.
(§8) Accurately weigh 20 mg of kidney, lung, and liver tissue. Rinse with pre-chilled PBS solution, cut into small pieces using ophthalmic scissors, and place into a glass homogenizer. Add 1 mL of Trizol reagent and grind to prepare tissue homogenate. Transfer the homogenate to a RNAse-free 1.5 mL EP tube and lyse on ice for 10 min. Add 200 μL chloroform, vortex vigorously, and let stand on ice for 3-5 min. Centrifuge at 12,000 rpm and 4° C. for 15 min. Carefully transfer the supernatant to a new RNAse-free 1.5 mL EP tube. Add an equal volume of pre-chilled isopropanol, incubate on ice for 30 min, then centrifuge at 12,000 rpm and 4° C. for 10 min. Discard the supernatant. […] Subsequently, dissolve the pellet in 10 μL DEPC-treated water. Dilute 1 μL of the total RNA solution 100-fold and measure the OD values at 260 nm and 280 nm using a full-wavelength microplate reader.
(§9) Following the method described in the kit manual, subsequent experiments were conducted using a 20 μL reverse transcription reaction system:
(§10) Primers were designed based on the nucleotide sequence of the mouse in GenBank and synthesized.
(§11) Perform subsequent experiments using a 20 μL reaction system according to the kit instructions:
(§12) After adding the above reagents to micro reaction tubes, seal them with the cap and place them in the Q-PCR instrument. Set the parameters according to the following reaction conditions to perform the amplification experiment.
(§13) Record the threshold cycle (Ct) values for each group and perform calculation and analysis using the 2^−ΔΔCt method (setting the expression level of the reference gene Gapdh as 1 to correct the expression levels of the target genes).
(§14) Data Statistics: All data are presented as Means±S.E.M. Analysis of variance (ANOVA) was performed to assess the significance of differences. Groups showing significant differences in ANOVA were further compared using one-way ANOVA and Dunnett's test. A P-value <0.05 was considered statistically significant.

[5] = test system: inflammatory factors (TNF, IL-6, IL-1) in liver tissue; test: LPS-induced sepsis, hepatic inflammatory factor mRNA (Q-PCR); details: for Tnf mRNA expression, liver: LPS 8.92; for Il6 mRNA expression, liver: LPS 11.34; for Il1 mRNA expression, liver: LPS 11.52
Excerpt: as §5, §6, §7, §8, §9, §10, §11, §12, §13, §14

rat arthritis = details: in vivo; cited from earlier work
[6] = dose 1 (head μmol/kg/day; text 1 mg/kg/day), i.p. daily, two weeks, Hepa1-6

Row | SMILES | BUN ([1]; 0.1 mg/kg oral) | Scr (serum creatinine) ([1]; 0.1 mg/kg oral) | BUN ([1]; 1 mg/kg oral) | combination with anti-PD-L1 monoclonal antibody vs. single agents, Hepa1-6 (Hepa1-6 cells) | combination with anti-PD-L1 monoclonal antibody vs. single agents, H22 (H22 cells) | Tumor inhibition rate (%) (H22 cells) | Tumor weight (H22 cells) | solubility [2] | ALT (serum ALT and AST; 1 mg/kg oral) | AST (serum ALT and AST; 1 mg/kg oral) | Acta2 mRNA expression, liver ([3]; 1 mg/kg oral) | Col1a1 mRNA expression, liver ([3]; 1 mg/kg oral) | Tgfb1 mRNA expression, liver ([3]; 1 mg/kg oral) | Tnf mRNA expression, kidney ([4]; 1 mg/kg oral) | Il1 mRNA expression, kidney ([4]; 1 mg/kg oral) | Il6 mRNA expression, kidney ([4]; 1 mg/kg oral) | Tnf mRNA expression, liver ([5]; 1 mg/kg oral) | Il6 mRNA expression, liver ([5]; 1 mg/kg oral) | Il1 mRNA expression, liver ([5]; 1 mg/kg oral) | further results
1 | CC1=C2CC[C@@](C)(OC(=O)N3CCCC3)[C@@H]2[C@H]2OC(=O)[C@@H](CN3CCCC3)[C@@H]2CC1 [Compound 103] | 23.42 ± 13.11 | 74.95 ± 21.37 | 20.38 ± 10.82 | synergistic effect | synergistic effect | 41.90% | 0.70 ± 0.08 g | 278 mg/mL (≈ 668 mM) | – | – | – | – | – | – | – | – | – | – | – | Scr (serum creatinine) ([1]; 1 mg/kg oral): 73.88 ± 14.26; BUN ([1]; 10 mg/kg oral): 17.72 ± 7.78; Scr (serum creatinine) ([1]; 10 mg/kg oral): 45.19 ± 7.41; Tumor inhibition rate (%) (Hepa1-6 cells; [6]): 62.26%; Tumor weight (Hepa1-6 cells; [6]): 0.16 ± 0.05 g
2 | CC1=C2CC[C@@](C)(OC(=O)N3CCCCC3)[C@@H]2[C@H]2OC(=O)[C@@H](CN(C)C)[C@@H]2CC1 [Compound 102] | – | – | – | – | – | – | – | 132 mg/mL (≈ 328 mM) | – | – | – | – | – | – | – | – | – | – | – | –
3 | CN(C)C[C@@H]1C(=O)O[C@H]2[C@H]1CC[C@@]1(C)C[C@]13CC[C@@](C)(O)[C@H]23 [Compound 20] | – | – | – | synergistic effect | synergistic effect | 48.67% | 0.64 ± 0.09 g | – | 85.02 ± 15.84 U/L | 153.34 ± 27.59 U/L | 1.85 ± 0.77 | 1.16 ± 0.26 | 0.92 ± 0.21 | 6.20 ± 0.60 | 2.76 ± 0.59 | 2.43 ± 0.64 | 5.71 ± 0.61 | 3.93 ± 0.90 | 3.07 ± 0.29 | tumor inhibition rate, combination (Hepa1-6 cells; 1 mg/kg/d i.p. combined with anti-PD-L1 monoclonal antibody (5 mg/kg/d)): 96.99%
4 | CN(C)C[C@@H]1C(=O)O[C@H]2[C@H]1CC[C@@]1(C)C[C@]13CC[C@@](C)(O)[C@H]23 [Compound 21] | 30.08 ± 3.03 | 90.69 ± 12.83 | 18.95 ± 2.58 | – | – | – | – | – | 95.82 ± 2.72 U/L | 215.82 ± 63.48 U/L | 2.18 ± 0.42 | 1.26 ± 0.27 | 0.88 ± 0.16 | 6.04 ± 1.62 | 2.82 ± 0.33 | 2.70 ± 0.52 | 7.12 ± 1.12 | 4.82 ± 0.69 | 4.22 ± 0.90 | ALT (serum ALT and AST; 0.1 mg/kg oral): 132.32 ± 31.96 U/L; AST (serum ALT and AST; 0.1 mg/kg oral): 385.64 ± 28.70 U/L; Acta2 mRNA expression, liver ([3]; 0.1 mg/kg oral): 2.86 ± 0.26; Col1a1 mRNA expression, liver ([3]; 0.1 mg/kg oral): 1.83 ± 0.53; Tgfb1 mRNA expression, liver ([3]; 0.1 mg/kg oral): 1.08 ± 0.29; Scr (serum creatinine) ([1]; 1 mg/kg oral, 1 mg/kg): 50.39 ± 7.65; Tnf mRNA expression, kidney ([4]; 0.1 mg/kg oral): 6.70 ± 0.80; Il1 mRNA expression, kidney ([4]; 0.1 mg/kg oral): 6.56 ± 0.88; Il6 mRNA expression, kidney ([4]; 0.1 mg/kg oral): 6.05 ± 0.19; Tnf mRNA expression, liver ([5]; 0.1 mg/kg oral): 7.78 ± 1.68; Il6 mRNA expression, liver ([5]; 0.1 mg/kg oral): 8.96 ± 0.70; Il1 mRNA expression, liver ([5]; 0.1 mg/kg oral): 10.32 ± 1.45
5 | C=C1C(=O)O[C@@H]2[C@H]3C(C)=CC[C@@]34O[C@@]4(C)CC[C@@H]12 [Arg, Arglabin, reference compound] | – | – | – | – | – | – | – | – | – | – | – | – | – | – | – | – | – | – | – | joint swelling (rat arthritis): significantly suppressed; serum levels of TNF-α, IL-1β, and IL-6 (rat arthritis): lowered

— US20260315434A1, “USE OF GUAIACOL SESQUITERPENE LACTONE DERIVATIVES” (NANJING UNIVERSITY OF CHINESE MEDICINE, priority 2023, published 2026)
